Assay results reported in BindingDB's records for doi:10.1016/j.bmc.2013.11.045 (Northern Kentucky University, 2013).

Assay: Inhibition of aromatase in human MCF7 cells

**Q.** For `O=C1c2ccccc2OCC1c1ccc(Oc2ccccc2)cc1` (configuration not stated), which IC50 is on record?
**A.** 17 µM

**Q.** For `O=C1c2ccccc2OCC1c1cccnc1` (configuration not stated), which IC50 is on record?
**A.** 44 µM
